Earlier results on one molecule are cited in patent EP4729530A1, “NOVEL PEPTIDE AND USE THEREOF” (Gemvax & Kael Co., Ltd., priority 2023, dated 2024).

For series [1] the following is noted: read-out: cytotoxicity (GI50); cited from earlier work.
The next series has as its target tau (Homo sapiens, UniProt P10636). As to conditions: read-out: tau aggregation inhibition range (EC50); cited from earlier work.

tau, sequence (P10636 whole entry): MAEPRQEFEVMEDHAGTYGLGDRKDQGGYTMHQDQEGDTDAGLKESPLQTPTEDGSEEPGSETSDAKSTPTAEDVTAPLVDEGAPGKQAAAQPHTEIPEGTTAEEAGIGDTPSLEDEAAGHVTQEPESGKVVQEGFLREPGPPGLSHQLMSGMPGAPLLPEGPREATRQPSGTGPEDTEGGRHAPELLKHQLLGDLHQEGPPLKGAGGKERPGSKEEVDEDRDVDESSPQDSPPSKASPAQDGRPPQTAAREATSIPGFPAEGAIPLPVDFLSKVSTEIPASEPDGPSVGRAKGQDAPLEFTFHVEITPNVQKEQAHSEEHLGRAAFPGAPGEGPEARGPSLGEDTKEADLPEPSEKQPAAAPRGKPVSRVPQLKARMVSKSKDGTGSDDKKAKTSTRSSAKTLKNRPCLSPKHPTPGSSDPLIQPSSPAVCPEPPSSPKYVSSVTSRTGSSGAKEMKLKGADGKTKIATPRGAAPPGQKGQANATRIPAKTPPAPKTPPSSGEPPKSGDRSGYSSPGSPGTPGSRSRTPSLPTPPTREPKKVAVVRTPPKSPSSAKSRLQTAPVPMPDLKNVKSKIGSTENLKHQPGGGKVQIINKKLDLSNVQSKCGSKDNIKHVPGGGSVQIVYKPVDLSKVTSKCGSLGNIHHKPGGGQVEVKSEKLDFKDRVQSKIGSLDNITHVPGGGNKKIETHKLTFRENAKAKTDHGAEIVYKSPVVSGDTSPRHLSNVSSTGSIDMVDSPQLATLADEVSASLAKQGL

For orientation: GI50 means the concentration at which growth is held to half of that of the control. The EC50 is the concentration giving half of the maximal effect. For `CN(C)c1ccc2c(c1)Sc1cc(N(C)C)ccc1N2` [LMTM], the 50% growth inhibitory concentration (GI50) in series [1] was 6.4 ± 0.3 µM. The 50% effective concentration (EC50) on tau is 2.2 ± 0.2 µM.
